This is an account of results in the METLIN SMRT retention time set (Domingo-Almenara et al. 2019).

This series is described as follows: gradient 5% acetonitrile 3 min, to 50% in 2 min, to 85% in 15 min, held 3 min, 100 µL/min. As to conditions: column: Zorbax Extend-C18 2.1 x 50 mm; eluents: water / acetonitrile, 0.1% formic acid. An outline of the steps: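 Each retention time is based on an adduct peak selected computationally and verified by manual inspection. Measurements used HPLC–quadrupole time-of-flight mass spectrometry in positive and negative ionization mode on mixtures of ~100 pure standards. Chromatography ran on a Zorbax Extend-C18 column (2.1 × 50 mm, 1.8 μm) at 100 μL/min with water and acetonitrile, each containing 0.1% formic acid, and dead and dwell volumes of 40 μL and 900 μL.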
For `CSc1cccc(NC(=O)Cn2c(-c3ccccc3)nc(C)cc2=O)c1`, the RP-LC retention time stood at 1050 s.

`CCCn1c(=O)sc2cc(S(=O)(=O)N3CCN(C(=O)C4CCN(C(C)=O)CC4)CC3)ccc21` returned an RP-LC retention time of 722 s.

For `COc1ccc2cc(C(=O)N3CCN(c4cc(=O)n(C)c(=O)n4C)CC3)[nH]c2c1`, the RP-LC retention time was 673 s.

Molecule `COc1cccc(OC(=O)c2cn(CC(C)C)c(=O)c3ccccc23)c1` gave an RP-LC retention time of 1210 s.

Molecule `COc1cc(OC)cc(C(=O)N2CCn3cnnc3C2)c1` had an RP-LC retention time of 578 s.

Take `COc1cccc(C2CC(c3ccc(C)c(C)c3)=NC3(CCN(C(C)=O)CC3)N2)c1O` (stereo not drawn): the RP-LC retention time is 694 s.

Molecule `Cc1ccc2nc(NC(=O)C3CC(=O)N(c4n[nH]c5cccc(F)c45)C3)sc2c1` (stereo not drawn) yielded an RP-LC retention time of 812 s.

`O=C(Nc1ccc(F)c(Cl)c1)NC1CCCN(c2cc(-c3ccncc3)[nH]n2)C1` (stereo not drawn) had an RP-LC retention time of 657 s.

In the case of `CCOC(=O)C1CCN(C(=O)C2CCN(c3cncnc3N3CCCC3)CC2)CC1`, the RP-LC retention time turned out to be 629 s.

As to `Cc1cccc(N2CCN(S(=O)(=O)c3ccc4c(c3)CCCC(=O)N4)CC2C)c1` (stereo not drawn), the RP-LC retention time was determined as 881 s.

`Cc1noc(CNS(=O)(=O)c2ccc(OC(F)(F)F)cc2)n1` returned an RP-LC retention time of 818 s.

In turn, `Cc1cccc(Cn2c(=O)n(CCNC(=O)C3(c4ccccc4)CC3)c3ncccc32)c1` came in with an RP-LC retention time of 953 s.

Consider `O=C1CC(c2nc(-c3ccccc3)no2)CN1c1ccc(F)cc1` (stereo not drawn), for which the RP-LC retention time was determined as 940 s.

`COc1ccc(-c2csc(Nc3ccc(Br)cn3)n2)cc1`: the RP-LC retention time worked out at 1170 s.

In turn, `O=C(Cc1ccccc1F)N1C[C@H]2CNC(=O)[C@]23CCCC[C@@H]13` had an RP-LC retention time of 683 s.

Take `CCc1nn2c(CNC(=O)c3ccc(C(C)C)cc3)c(-c3ccccc3)nc2s1`: the RP-LC retention time is 1080 s.

Turning to `Cn1c(N2CCN(C(=O)Cc3ccccc3Cl)CC2)cc(=O)n(C)c1=O`, the RP-LC retention time was 732 s.

Regarding `O=c1c(-c2ccccc2)c(N2CCN(c3ccccn3)CC2)c1=O`, the RP-LC retention time is 620 s.

As for `CCN1C(=O)COc2ccc(-c3csc(NC(=O)C(C)C)n3)cc21`, the RP-LC retention time was determined as 830 s.

`CC1CCN(S(=O)(=O)c2ccc(-c3nnc(C(=O)NCCCc4ccccc4)o3)cc2)CC1` came in with an RP-LC retention time of 1150 s.

Turning to `COc1ccc(-c2csc3c(=O)n(Cc4ccc(F)cc4)cnc23)cc1`, the RP-LC retention time turned out to be 1050 s.

With `O=C(NC1CCCC1)c1cccn1Cc1noc(-c2ccccc2)n1`, the RP-LC retention time is 981 s.

As for `O=C(CN1CCN(c2ccccn2)CC1)N1c2ccccc2Sc2ccccc21`, the RP-LC retention time is 652 s.

In turn, `CCOc1ccc(NC(=O)c2oc3ccc(F)cc3c2C)c2cccnc12` had an RP-LC retention time of 710 s.

With `CC(=O)N1CCCC(c2nc(CNC(=O)C3CCC3)cs2)C1` (stereo not drawn), the RP-LC retention time is 631 s.

Take `COc1ccc(OC)c(NC(=O)NC2CCN(c3nc4ccccc4n(C)c3=O)CC2)c1`: the RP-LC retention time was determined as 886 s.

With `Cc1cccc(NC(=O)C2CCN(S(=O)(=O)c3ccc4c(c3)sc(=O)n4C)CC2)c1C`, the RP-LC retention time came out at 830 s.

Molecule `COc1ccc(-c2noc(-c3ccc(NCCCN4CCCC4)nn3)n2)cc1` had an RP-LC retention time of 642 s.

For the molecule `O=C(Nc1cnc(N2CCCCC2)nc1)c1cccs1`, the RP-LC retention time turned out to be 842 s.

`CCCC(=O)N1CCc2c(c(C(=O)NCc3ccc4c(c3)OCO4)nn2C)C1` had an RP-LC retention time of 728 s.

Consider `CCc1nc(-c2csc(S(=O)(=O)N3CCC(C(=O)NCc4cccc(C)c4)CC3)c2)no1`, for which the RP-LC retention time is 970 s.

Consider `CCc1nnc(-c2ccc3ccn(CC(=O)NCCc4cccs4)c3c2)o1`, for which the RP-LC retention time came to 781 s.

On to `O=C(Nc1cccc(F)c1)C1CCCN(c2nnc3ccc(Cl)cn23)C1` (stereo not drawn), for which the RP-LC retention time turned out to be 806 s.
